Like-named read-outs stand apart in the source and are kept apart here.
Experiments:
[1] = tested on: Plasmodium falciparum FCB-2 (chloroquine-resistant) strain; assay: In vitro antiplasmodial activity, [3H]hypoxanthine incorporation, FCB-2 strain; type: cell-based; conditions: for RI (resistance index): IC50 FCB-2 (resistant strain)/IC50 NF-54 (sensitive strain); for IC50: P. falciparum FCB-2 chloroquine-resistant strain, 48 h, read-out: IC50 μM ± SD FCB-2
Experimental: (§1) A 10 mg/mL stock solution was prepared. […] A 50 μL sample was extracted from this solution and adjusted to 1,000 μL with RPMI-1640 without hypoxanthine until a final 500 μg/mL concentration was reached. The P. falciparum FcB-2 (Colombia) and NF54 (The Netherlands) strains were used for assessing anti-malarial activity.
(§2) Trager and Jensen’s method was used for culturing strains [24, 25]. The methods described by Desjardins et al. [26] were used for evaluating the structural analogs’ in vitro antiplasmodial activity, with some modifications. […] 1.0 µCi/mL of [3H] hypoxanthine (MP Biomedicals, Santa Ana, CA, USA) was added to each well and the plates were then incubated for 48 h at 37 °C in 5% CO2, 5% O2 in a balanced N2 atmosphere. Parasite DNA was harvested and radioactivity was determined by automatic TDCR liquid scintillation counter plate (Chameleon, Hidex Oy, Finland). Experiments were repeated twice with two or three replicates each. A nonlinear regression sigmoidal dose-response (variable slope) model was used to estimate concentration inhibiting 50% growth (IC50) values for each derivative.

[2] = tested on: Plasmodium falciparum NF-54 strain; assay: In vitro antiplasmodial activity, [3H]hypoxanthine incorporation, NF-54 strain; type: cell-based; conditions: P. falciparum NF-54 chloroquine-sensitive strain, 48 h, read-out: IC50 μM ± SD NF-54
Experimental: as §1, §2

[3] = Cytotoxicity, MTT colorimetric test; type: cell-based, human; conditions: human
Experimental: (§3) Steroidal derivatives’ cytotoxicity regarding the HepG2-A16 cell line was evaluated by colorimetric test using 3-(4,5-dimethylthiazolyl-2)-2,5-diphenyltetrazolium bromide (MTT), as described by Mosmann [28]. […] An aliquot of each derivative dilution (100 μL, 1,000, 100, 10 and 1 μg/mL) was then added to the wells in triplicate. […] The DMSO diluent agent was evaluated in complete medium and negative controls (untreated cells) were included. Absorbance was measured at 550 nm and statistical Prism software version 5.0 (GraphPad Software Inc., La Jolla, CA, USA) was used for calculating toxic concentration (CC50). Amphotericin B was used as positive control in this assay.

[4] = tested on: HepG2-A16 human hepatoma cells; assay: Cytotoxicity, MTT colorimetric test; type: cell-based; conditions: CC50 HepG2/IC50 parasite FCB-2
Experimental: as §3

[5] = tested on: Plasmodium falciparum FCB-2 (chloroquine-resistant) strain; design: method as in doi:10.1016/S0040-4020(98)00632-2, PMID 11807967; conditions: reported earlier; cited from earlier work
[6] = tested on: Plasmodium berghei (ANKA strain); assay: Peters' 4-day suppressive test in P. berghei-infected mice; type: in vivo, Plasmodium berghei in Balb/C mice; conditions: 100 mg/kg oral
Experimental: Antimalarial activity was expressed as the percentage of parasite multiplication inhibition.
Antimalarial activity was assessed in vivo in the P. berghei rodent malaria model according to Peters’ 4-day suppressive test in P. berghei-infected (ANKA strain), 5–6 week-old Balb/C mice (males and females) weighing 23 ± 5 g; parasitemia kinetics were evaluated following treatment [2]. […] The donor mice were anesthetized with a 5 mg/kg xylazine and 50 mg/kg ketamine cocktail; blood was then collected via intracardiac route and 100 uL of 5 × 10^6 P. berghei ANKA-parasitised parasitized erythrocytes per experimental mouse were inoculated. Mouse infection was checked one day later by thin smear blood test and Giemsa staining.

SMILES	RI (resistance index) [1]	IC50 [1] [µM]	IC50 ([1]; Plasmodium falciparum) [µM]	IC50 [2] [µM]	CC50 at 48 h [3] [µM]	SI (selectivity index) [4]	antiplasmodial activity against FcB-2 chloroquine-resistant strains (in words) [5]	in vivo effect on parasites (in words) [6]	parasitaemia (parasitized erythrocytes) ([6]; fifth day post treatment, vehicle controls 36.0%) [%]	reduction in parasitemia ([6]; 4 daily doses) [%]	melting point [°C]
CC(=O)O[C@H]1CC2C3CCC4=CC(=O)CC[C@]4(C)C3CC[C@]2(C)[C@H]1[C@H](C)C(=O)CC[C@@H](C)CO (some centres unmarked) [Compound 3]	0.6	21.35 ± 0.2	21.4	33 ± 0.8	60	2.8	have antiplasmodial activity				
C[C@@H]1CC[C@@]2(OC1)O[C@H]1C[C@H]3[C@@H]4CCC5=CC(=O)CC[C@]5(C)[C@H]4CC[C@]3(C)[C@H]1[C@@H]2C [Compound 2, (25R)-4-Spirosten-3-one]			27.9 ± 5.5	35.4 ± 2.2	265		have antiplasmodial activity	no decrease in the amount of parasites	50.0		
C[C@@H](CO)CCC(=O)[C@@H](C)[C@H]1[C@@H](O)CC2C3CCC4=CC(=O)CC[C@]4(C)C3CC[C@@]21C (some centres unmarked) [Compound 4]	0.9		223 ± 12.3	248 ± 5.3	2150	9.6	have antiplasmodial activity				
CC1CCC2(OC1)OC1(O)CC3C4CCC56OC5C(=O)CCC6(C)C4CCC3(C)C1C2C [Compound 14, (25R)-4,5-Epoxy-spirostan-16α-hydroxy-3-one]	1.2		10.1 ± 1.3	8.5 ± 2.3	153	15.2				36.7	145 to 147
